Results as given in US11440886B2, “Anti-inflammatory compound, and preparation and use thereof” (E-Nitiate Biopharmaceuticals (Hangzhou) Co., Ltd., priority 2018, dated 2022).

The compounds below were run against human recombinant PDE4B1 enzyme (Homo sapiens (Human), UniProt Q07343) (assay: Inhibition of PDE4B1 activity by cAMP HTRF assay). Settings: human recombinant PDE4B1, cAMP 40 nM, pH 7.4.
Format: biochemical
Procedure: Determination of the inhibition of the compounds on PDE4B1 activity by using cAMP HTRF® assay
The inhibitory effect of the compounds on human PDE4B1 enzyme activity was determined by quantifying the 5′-adenosine monophosphate (5′-AMP) formed from 3′,5′-cyclic adenosine monophosphate (cAMP).
The test compound or water (control) and human recombinant PDE4B1 enzyme (4.8 U) were mixed in a buffer solution (pH 7.4) consisting of 1× Hanks' balanced salt solution (HBSS), 5 mM HEPES, 3 mM MgCl2, and 0.1% BSA and incubated for 10 min. A cAMP enzyme substrate (final concentration 40 nM) was added, and the mixture was incubated at room temperature for 60 min. Then a fluorescent acceptor (Dye2 labeled with cAMP), a fluorescent donor (anti-cAMP antibody labeled with europium cryptate) and a non-specific phosphodiesterase inhibitor IBMX (3-isobutyl-1-methyl xanthine; final concentration 1 mM) were added. After 60 min, the fluorescence transfer related to the amount of remaining cAMP was measured on a microplate reader (Rubystar, BMG) at λex=337 nm, λem=620 nm and λem=665 nm. The enzyme activity is calculated from the ratio of the signals measured at 665 nm and 620 nm. The results are expressed as percent inhibition of the enzyme activity of the control (without PDE4 inhibitor). The enzyme was omitted for measurement of the basic control. The IC50 value (IC50=the concentration that caused the half-maximum inhibition of the specific activity of the control) is derived from dose-response measurements with eight different concentrations (n=2; repeated 2 times)

human recombinant PDE4B1 enzyme, sequence (Q07343 whole entry): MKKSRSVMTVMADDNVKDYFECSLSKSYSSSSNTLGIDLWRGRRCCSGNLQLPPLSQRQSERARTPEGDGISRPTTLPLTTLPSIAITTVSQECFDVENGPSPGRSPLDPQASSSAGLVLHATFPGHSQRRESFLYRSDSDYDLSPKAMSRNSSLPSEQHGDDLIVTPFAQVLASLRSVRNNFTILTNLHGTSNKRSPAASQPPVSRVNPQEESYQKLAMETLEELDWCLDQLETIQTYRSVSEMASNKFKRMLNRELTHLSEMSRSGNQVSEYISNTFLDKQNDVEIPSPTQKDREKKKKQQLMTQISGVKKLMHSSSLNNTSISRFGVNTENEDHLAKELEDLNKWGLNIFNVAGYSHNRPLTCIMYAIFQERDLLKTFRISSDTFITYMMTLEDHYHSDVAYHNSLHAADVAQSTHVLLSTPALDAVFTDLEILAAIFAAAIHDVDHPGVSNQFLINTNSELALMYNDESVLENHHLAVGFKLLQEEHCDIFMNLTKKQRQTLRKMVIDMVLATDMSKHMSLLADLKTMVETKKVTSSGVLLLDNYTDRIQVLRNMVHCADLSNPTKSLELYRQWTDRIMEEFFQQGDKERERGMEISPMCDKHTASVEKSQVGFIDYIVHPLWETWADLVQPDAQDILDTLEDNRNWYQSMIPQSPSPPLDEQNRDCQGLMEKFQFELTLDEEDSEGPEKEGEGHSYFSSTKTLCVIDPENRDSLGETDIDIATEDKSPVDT

Point of comparison: `COc1ccc(/C(Cn2c(C)cc(=O)cc2C)=N/OCS(C)(=O)=O)cc1OCC1CC1` [Example 44, (Z)-1-(2-(3-cyclopropylmethoxy-4-methoxyphenyl)-2-(methylsulfonemethoxyimido)ethyl)-2,6-dimethylpyridin-4(1H)-one], IC50 30 nM. Against it:
- COc1ccc(C(=O)Cn2c(C)cc(=O)cc2C)cc1OCC[S+](C)[O-] (stereo not drawn) [Example 36, 1-(2-(3-methylsulfoxideethoxy-4-methoxyphenyl)-2-oxoethyl)-2,6-dimethylpyridin-4(1H)-one] — 42-fold higher, 1250 nM
- COc1ccc(C(=O)Cn2c(C)cc(=O)cc2C)cc1OCCS(C)(=O)=O [Example 37, 1-(2-(3-methylsulfoneethoxy-4-methoxyphenyl)-2-oxoethyl)-2,6-dimethylpyridin-4(1H)-one] — 17-fold higher, 510 nM
- COc1ccc(/C(Cn2c(C)cc(=O)cc2C)=N/O)cc1OCC1CC1 [Example 38-1, (Z)-1-(2-(3-cyclopropylmethoxy-4-methoxyphenyl)-2-(hydroxyimido)ethyl)-2,6-dimethylpyridin-4(1H)-one] — 36-fold higher, 1090 nM
- COc1ccc(/C(Cn2c(C)cc(=O)cc2C)=N\O)cc1OCC1CC1 [Example 38-2, (E)-1-(2-(3-cyclopropylmethoxy-4-methoxyphenyl)-2-(hydroxyimido)ethyl)-2,6-dimethylpyridin-4(1H)-one] — 2.4-fold higher, 71 nM
- CO/N=C(\Cn1c(C)cc(=O)cc1C)c1ccc(OC)c(OCC2CC2)c1 [Example 39, (Z)-1-(2-(3-cyclopropylmethoxy-4-methoxyphenyl)-2-(methoxyimido)ethyl)-2,6-dimethylpyridin-4(1H)-one] — 36-fold higher, 1070 nM
- CO/N=C(/Cn1c(C)cc(=O)cc1C)c1ccc(OC)c(OCC2CC2)c1 [Example 40, (E)-1-(2-(3-cyclopropylmethoxy-4-methoxyphenyl)-2-(hydroxymethylimido)ethyl)-2,6-dimethylpyridin-4(1H)-one] — 4.4-fold lower, 6.8 nM
- COc1ccc(/C(Cn2c(C)cc(=O)cc2C)=N/OCSC)cc1OCC1CC1 [Example 41, (Z)-1-(2-(3-cyclopropylmethoxy-4-methoxyphenyl)-2-(methylthiomethoxyimido)ethyl)-2,6-dimethylpyridin-4(1H)-one] — 25-fold lower, 1.22 nM
- COc1ccc(/C(Cn2c(C)cc(=O)cc2C)=N\OCSC)cc1OCC1CC1 [Example 42, (E)-1-(2-(3-cyclopropylmethoxy-4-methoxyphenyl)-2-(methylthiomethoxyimido)ethyl)-2,6-dimethylpyridin-4(1H)-one] — 3.7-fold lower, 8.2 nM
- COc1ccc(/C(Cn2c(C)cc(=O)cc2C)=N/OC[S+](C)[O-])cc1OCC1CC1 (stereo not drawn) [Example 43, (Z)-1-(2-(3-cyclopropylmethoxy-4-methoxyphenyl)-2-(methylsulfoxidemethoxyimido)ethyl)-2,6-dimethylpyridin-4(1H)-one] — 6.1-fold lower, 4.9 nM
- COc1ccc(C(=O)Cn2ccc(=O)cc2)cc1OCC1CC1 [Example 45, 1-(2-(3-cyclopropylmethoxy-4-methoxyphenyl)-2-oxoethyl)pyridin-4(1H)-one] — 5.7-fold higher, 170 nM
- COc1ccc(C(=O)Cn2ccc(=O)cc2C)cc1OCC1CC1 [Example 46, 1-(2-(3-cyclopropylmethoxy-4-methoxyphenyl)-2-oxoethyl)-2-methylpyridin-4(1H)-one] — within 1.5-fold, 25 nM
- COc1ccc(C(=O)Cn2ccc(=O)cc2Cl)cc1OCC1CC1 [Example 47, 1-(2-(3-cyclopropylmethoxy-4-methoxyphenyl)-2-oxoethyl)-2-chloropyridin-4(1H)-one] — 4.2-fold lower, 7.1 nM
- COc1ccc(C2CC2n2c(C)cc(=O)cc2C)cc1OCC1CC1 (stereo not drawn) [Example 48, 1-(2-(3-cyclopropylmethoxy-4-methoxyphenyl)cyclopropyl)-2,6-dimethylpyridin-4(1H)-one] — 14-fold higher, 420 nM
- Cc1cc(=O)cc(C)n1CC(=O)c1ccc(OC(F)F)c(OCC2CC2)c1 [Example 49, 1-(2-(3-cyclopropylmethoxy-4-difluoromethoxyphenyl)-2-oxoethyl)-2,6-dimethylpyridin-4(1H)-one] — 10-fold lower, 2.9 nM
- COc1ccc(/C=C/n2ccc(=O)cc2)cc1OCC1CC1 [Example 50, (E)-1-(3-cyclopropylmethoxy-4-methoxystyryl)pyridin-4(1H)-one] — 6-fold higher, 180 nM
- COc1ccc(/C=C/n2ccc(=O)cc2C)cc1OCC1CC1 [Example 51, (E)-1-(3-cyclopropylmethoxy-4-methoxystyryl)-2-methylpyridin-4(1H)-one] — 1.9-fold higher, 57 nM
- CCCOc1cc(/C=C/n2c(C)cc(=O)cc2C)ccc1OC [Example 53, (E)-1-(3-propoxy-4-methoxystyryl)-2,6-dimethylpyridin-4(1H)-one] — 2-fold lower, 15 nM
- COc1ccc(/C=C/n2c(C)cc(=O)cc2C)cc1OC(C)C [Example 54, (E)-1-(3-isopropoxy-4-methoxystyryl)-2,6-dimethylpyridin-4(1H)-one] — within 1.5-fold, 26 nM
- CCCCOc1cc(/C=C/n2c(C)cc(=O)cc2C)ccc1OC [Example 55, (E)-1-((3-n-butoxy-4-methoxy)-styryl)-2,6-dimethylpyridin-4(1H)-one] — 1.8-fold higher, 54 nM
- COc1ccc(/C=C/n2c(C)cc(=O)cc2C)cc1OCC(C)C [Example 56, (E)-1-(3-iso-butoxy-4-methoxystyryl)-2,6-dimethylpyridin-4(1H)-one] — 1.9-fold lower, 16 nM
- COc1ccc(/C=C/n2c(C)cc(=O)cc2C)cc1OCC(C)(C)C [Example 57, (E)-1-((3-neopentyloxy-4-methoxy)-styryl)-2,6-dimethylpyridin-4(1H)-one] — 3.3-fold higher, 100 nM
- COc1ccc(/C=C/n2c(C)cc(=O)cc2C)cc1OC1CC1 [Example 58, (E)-1-(3-cyclopropyloxy-4-methoxystyryl)-2,6-dimethylpyridin-4(1H)-one] — 5.5-fold lower, 5.5 nM
- COc1ccc(/C=C/n2c(C)cc(=O)cc2C)cc1OCC1CC1 [Example 59, (E)-1-(3-cyclopropylmethoxy-4-methoxystyryl)-2,6-dimethylpyridin-4(1H)-one] — 5.9-fold lower, 5.1 nM
- COc1ccc(CCn2c(C)cc(=O)cc2C)cc1OCC1CC1 [Example 60, (E)-1-(3-cyclopropylmethoxy-4-methoxyphenethyl)-2,6-dimethylpyridin-4(1H)-one] — 40-fold higher, 1200 nM
- COc1ccc(/C=C/n2c(C)cc(=O)cc2C)cc1OC1CCC1 [Example 61, (E)-1-(3-cyclobutyloxy-4-methoxy-styryl)-2,6-dimethylpyridin-4(1H)-one] — 4.8-fold lower, 6.2 nM
- COc1ccc(/C=C/n2c(C)cc(=O)cc2C)cc1OC1CCCC1 [Example 62, (E)-1-((3-cyclopentyloxy-4-methoxy)-styryl)-2,6-dimethylpyridin-4(1H)-one] — 2.9-fold lower, 10.2 nM
- COc1ccc(/C=C/n2c(C)cc(=O)cc2C)cc1OC1CC=CC1 [Example 63, (E)-1-(3-(cyclopent-3-en-1-yloxy)-4-methoxystyryl)-2,6-dimethylpyridin-4(1H)-one] — 2.7-fold lower, 11.1 nM
- C=CCOc1cc(/C=C/n2c(C)cc(=O)cc2C)ccc1OC [Example 64, (E)-1-(3-allyloxy-4-methoxy-styryl)-2,6-dimethylpyridin-4(1H)-one] — within 1.5-fold, 43 nM
- COc1ccc(/C=C/n2c(C)cc(=O)cc2C)cc1OCC=C(C)C [Example 65, (E)-1-((3-(3-methylbut-2-en-1-yl)oxy-4-methoxy)-styryl)-2,6-dimethylpyridin-4(1H)-one] — 17-fold higher, 520 nM
- C#CCOc1cc(/C=C/n2c(C)cc(=O)cc2C)ccc1OC [Example 66] — 9-fold higher, 270 nM
- CC#CCOc1cc(/C=C/n2c(C)cc(=O)cc2C)ccc1OC [Example 67, (E)-1-(3-(but-2-yn-1-yloxy)-4-methoxystyryl)-2,6-dimethylpyridin-4(1H)-one] — 5.7-fold higher, 170 nM
- COc1ccc(/C=C/n2c(C)cc(=O)cc2C)cc1OC1COC1 [Example 68, (E)-1-((3-(oxacyclobutan-3-yl-oxy)-4-methoxy)-styryl)-2,6-dimethylpyridin-4(1H)-one] — within 1.5-fold, 27 nM
- COc1ccc(/C=C/n2c(C)cc(=O)cc2C)cc1OC1CSC1 [Example 69, (E)-1-((3-(thiacyclobutan-3-yl-oxy)-4-methoxy)-styryl)-2,6-dimethylpyridin-4(1H)-one] — 170-fold higher, 5200 nM
- COc1ccc(/C=C/n2c(C)cc(=O)cc2C)cc1OC1CCCO1 (stereo not drawn) [Example 70, (E)-1-((3-(tetrahydrofuran-2-yl)oxy-4-methoxy)-styryl)-2,6-dimethylpyridin-4(1H)-one] — 3.7-fold lower, 8.1 nM
- CNC(=O)COc1cc(/C=C/n2c(C)cc(=O)cc2C)ccc1OC [Example 71, (E)-2-(5-(2-(2,6-dimethyl-4-carbonylpyridin-1(4H)-yl)ethenyl)-2methoxyphenoxy)-N-methylacetamide] — 47-fold higher, 1420 nM
- COc1ccc(/C=C/n2c(C)cc(=O)cc2C)cc1OC(=O)C1CC1 [Example 72, (E)-1-((3-cyclopropylformyloxy-4-methoxy)-styryl)-2,6-dimethylpyridin-4(1H)-one] — 130-fold higher, 3900 nM
- COc1ccc(/C=C/n2c(C)cc(=O)cc2C)cc1OCSC [Example 74, (E)-1-(3-methylthiomethoxy-4-methoxystyryl)-2,6-dimethylpyridin-4(1H)-one] — within 1.5-fold, 38 nM
- COc1ccc(/C=C/n2c(C)cc(=O)cc2C)cc1OC[S+](C)[O-] (stereo not drawn) [Example 75, (E)-1-(3-methylsulfoxidemethoxy-4-methoxystyryl)-2,6-dimethylpyridin-4(1H)-one] — 9.7-fold higher, 290 nM
